Tests used:
Type in all cases: in vivo
[1] = tested on: ovariectomized hamsters; experiment: Serum [non-HDL]/[HDL] ratio and kidney cholesterol in ovariectomized hamsters; conditions: Positive control, 17β Estradiol 21 day release 0.5 mg/pellet
Method: Animals: hamsters, female, weighed 100 g, bred at the Laboratory Animal Services Center (LASEC) of the Chinese University of Hong Kong, randomly divided into 6 groups.
Dose: 0.5 mg/pellet, catalogue no.: E121 • The sham operated group: hamsters received the operation but not ovariectomy. Method:
47 hamsters weighed 100 g were divided into 6 groups including the positive group, negative group, sham operated and 3 dosage groups (low, medium and high). All hamsters except those in the sham operated group received ovariectomy. A month after the ovariectomy operation, all hamsters were administered intragastrically with drugs and doses indicated above, once a day for consecutive 4 weeks. […] The non-HDL/HDL ratio in serum was analyzed according to See Ho K K W, Leung L K, Chan F L, Huang Y, Chen Z Y (2003).
The hamsters received administration intragastrically for another 4 weeks prior to killing by nitrogen narcosis. The cholesterol level in kidney was measured by gas chromatography.
300 mg of the kidney and 1 mg of the internal standard (IS), stigniastanol (Sigma, S-4297) was homogenized using Polytron homogenizer in 15 ml chloroform-methanol (2:1, v/v) and 3 ml 0.9% saline. […] The TMS-ether derivative was analyzed in a fused silica capillary column (SAC™-5, 30 m×0.25 mm, i.d.; Supelco, Inc., Bellefonte, Pa., USA) in a Shimadzu GC 14B GLC equipped with a flame-ionization detector (Shimadzu). […]

[2] = tested on: ovariectomized hamsters; experiment: Ferric Reducing Ability of Plasma (FRAP) in ovariectomized hamsters; conditions: Positive control
From the text: The higher the anti-oxidation level, the more Fe^2+ ions are reduced from Fe^3+ ions. See Benzie I F and Szeto Y T (1999).
47 female hamsters, weighed about 100 g, bred at the Laboratory Animal Services Center (LASEC) of the Chinese University of Hong Kong, were randomly divided into 6 groups.
Apparatus: • UV-visible spectrophometer: manufacturer Shimadzu, product code: UV-1601
Method: 47 female hamsters weighed 100 g were divided into 6 groups, including three test groups 1, 2, and 3, the positive control group 4, the negative control group 5, and the sham operated group 6.
The hamsters in groups 1-5 were ovariectomized. A month afterwards, the hamsters in groups 1-6 were administered intragastrically with the drugs and doses indicated above, once every day for consecutive 4 weeks. After 4 weeks of administration, blood samples were obtained from the orbital venous sinus, and were subjected to centrifugation at 10,000 rpm for 10 minutes to collect serum. 10 μl of serum was diluted with 490 μl double distilled water. 300 μl freshly prepared FRAP reagent was then added to initiate the reaction. The samples were placed under 593 nm to observe the changes of absorbance during the first 10 minutes of the reduction of Fe^3+ to Fe^2+. The increase in absorbance is an indicator of the level of reduction. The Ferric Reducing Ability of Plasma (FRAP) values were determined as follows: […]

[3] = tested on: KM mice; experiment: Open field test (spontaneous activity); conditions: female KM mice; oral; Composition I 14 g (crude herb)/kg/d 14 days, Diazepam 1.0 mg/kg once on day 14
Method: KM mice, females, weighed between 18-20 g, purchased from Shanghai Experimental Animal Center, the Chinese Academy of Sciences.
• Multi-functional Auto-Motion Recorder for Mouse/Rat: manufactured by Facility Station of Shandong Academy of Medical Science. Product code: YLS-1B.
Drug, dose, and the administration formulation: • For negative control group: 0.9% saline. • For positive control group: Diazepam as described above. The dose was 1.0 mg/kg weight/d. […] The dose was 14 g (crude herb)/kg weight/d. […] Method:
Thirty normal female mice weighed between 18-20 g were randomized into 3 groups of 10: negative control, positive control and the test group. For the negative control and testing group, the drugs were administered to the mice orally with the doses and formulations described above, once per day for consecutive 14 days. For the positive control group, the drug was given on the day fourteen orally. One hour after the last administration, the mice were individually placed into a box with infrared detection light to record their spontaneous activities in 3 minutes.

[4] = tested on: pentobarbital sodium-injected mice; experiment: Sleeping test (pentobarbital sodium-induced sleep); conditions: female KM mice; oral; Composition I 56 g (crude herb)/kg/d 14 days, Diazepam 0.5 mg/kg once on day 14; pentobarbital sodium 35 mg/kg i.p. 1 h after last dose
Protocol: According to Xu S Y. (1991 ), Chen Q. (1996 ), Zhang J T. (1998 ), Zhu X D. and Tang X C. (1998 ), an agent is deemed to have sedative and hypnotic effects if it can prolong the duration of the sleep, as indicated by the disappearance of right reflex, of pentobarbital sodium-injected mice
Drug, dose, and the administration formulation: • For negative control group: 0.9% saline. • For positive control group: Diazepam, purchased from BangNing Pharmaceutical Co. Ltd. The dose was 0.5 mg/kg weight/d. […] The dose was 56 g (crude herb)/kg weight/d. […] Method:
Thirty normal female mice weighed between 18-20 g were randomized into 3 groups of 10: the negative control group, the positive control group, and the test group. For the negative control and testing group, the drugs were administered to the mice orally with the doses and formulations indicated, once per day for consecutive 14 days. For the positive control group, the drug was given on the day fourteen orally. One hour after the last administrations, all mice were injected with 35 mg/kg of pentobarbital sodium intraperitoneally. The duration of the disappearance of righting reflex was observed and recorded. According to Zhang J T. (1998 ), the duration of the disappearance of righting reflex equals to the sleeping time.

[5] = tested on: normal female mice; experiment: Dark-light box test on normal mice; conditions: within 10 minutes, oral, Composition I 56 g (crude herb)/kg/d 14 days, Diazepam 1.0 mg/kg once on day 14, 1 h after last dose
Protocol: In the experiment, mice were placed in Shimada light and dark box. The times of mice shuttling between the boxes and the duration of mice staying in the dark/light box were recorded.
• Shimada light and dark box: size: 40 cm×40 cm×12 cm, having a light box (20 cm×20 cm×12 cm) at the center, and two dark boxes (10 cm×10 cm×12 cm) at two diagonal corners. Two L-shaped tracks are connected to two sides of each dark box. Manufacturer: Shanghai Institute of Pharmaceutical Industry. Animals:
Thirty normal female mice weighed between 18-20 g were randomized into 3 groups of 10: negative control, positive control (Diazepam) and the test group. The mice in the negative and test groups were administered orally with respective drugs and doses as indicated above, once a day for consecutive 14 days. The mice in the positive control group received only one dose orally as indicated above on day fourteen. 1 hour after the last administration on day fourteen, all the mice were placed in the Shimada light and dark box.

[6] = tested on: ovariectomized mice; experiment: Dark-light box test on ovariectomized mice; conditions: within 10 minutes, oral, Composition I 14 g (crude herb)/kg/d 14 days, Diazepam 1.0 mg/kg once on day 14, 1 h after last dose
Protocol: The same experiment of Example 5 was conducted on ovariectomized mice. […] See Xu S Y. (1991), Chen Q. (1996), Zhang J T. (1998).
Apparatus: Same as Example 5.
Animals: Same as Example 5.
Negative control group: 0.9% saline,
Positive control group: Diazepam, 1.0 mg/kg weight
Thirty female mice were anaesthetized by intraperitoneal injection with 35 mg/kg Pentobarbital Sodium. Two cuts were made on the back of the rats, each cut being 1.5 cm from the spine. The two ovaries were taken from the two cuts, respectively. The cuts were then sealed. 1 week after the ovariectomization, the 30 mice were randomly divided into 3 groups, and the same administration procedures as Example 5 were followed, using drugs and doses specified above. 1 hour after the last administration on day fourteen, all the mice were placed in the Shimada light and dark box.

[7] = tested on: ovariectomized rats; experiment: Elevated plus-maze test on ovariectomized rats; conditions: oral, Composition I 14 g (crude herb)/kg/d 14 days, Diazepam 0.5 mg/kg once on day 14, 1 h after last dose
Method: SD rats, female, weighed 230-250 g, purchased from Shanghai Experimental Animal Center, the Chinese Academy of Sciences.
• For negative control group: 0.9% saline. • For positive control group: Diazepam as described above. The dose was 0.5 mg/kg weight. • For test group: Composition as prepared in Experiment 1. The dose was 14 g (crude herb)/kg weight/d. Method:
Thirty female rats were divided into the above-mentioned 3 groups randomly and were anaesthetized by intraperitoneal injection with 60 mg/kg Pentobarbital Sodium. Two cuts were made on the back of the rats, each cut being 1.5 cm from the spine. The two ovaries were taken from the two cuts, respectively. The cuts were then sealed. The drug administration began 1 week after the ovariectomization. […] The rats in the positive control group received Diazepam orally only once on day fourteen. 1 hour after the last administration, the rats were placed in a maze.

[8] = tested on: KM mice; experiment: Step-down test on normal mice (scopolamine); conditions: n = 10 mice, oral 14 days: Composition I 14 g (crude herb)/kg/d, Huperzine A 1.5 ug/kg/d
From the text: A step-down recorder, comprising a platform and a copper floor, is provided. The mice were placed on the copper floor. When the cooper floor is electrified, the normal reaction of the mice is to jump up to the platform to avoid the electric shock. After a period of time, the mice may forget about the shock and jump back to the floor. This jumping back to the floor is an “error reaction”. The mice that jump back to the floor received electric shock again and would jump back to the platform again. The duration between the first jump up (to the platform) and back (to the floor) is called the “latency period”. The number of jumping backs (error reactions) in a certain period of time could serve as an indicator of the memory of the mice.
Based on the Principle, agents that are able to reduce the error reactions of mice in a certain period of time and […] the latent period are deemed effective in memory improvement. Xu S Y. (1991), Chen Q. (1996), Zhang J T. (1998),Yang J, Wang J, et al. (2000).
Code: YLS-2 T, purchased from Facility station of Shandong Academy of Medical Science Method:
Thirty normal female mice were randomized into 3 groups of 10: negative control, positive control (Huperzine A) and the test group. Mice in the three groups received respective drugs and doses orally as indicated above, once per day for consecutive 14 days. An hour after the last administration, all the mice were administrated with 2 mg/kg scopolamine intraperitoneally. 30 minutes later, the mice were placed in the step down recorder for 5 minutes for pre-adaptation. After the pre-adaptation, the copper floor was electrified for 5 minutes. The number of electric shocks each mouse received in the 5 minutes was recorded. After 24 hours, the test was conducted again.
The number of shocked mice, the latency period of each mouse, and the average number of error reactions in 3 minutes were recorded.

[9] = tested on: KM mice; experiment: Step through test on normal mice (ethanol-induced memory impairment); conditions: oral 14 days: Composition I 14 g (crude herb)/kg/day, Huperzine A 1.5 ug/kg/day
From the text: A Step Through Test Box for Mouse with a light room and a dark room inside is provided. The mice are placed in the light room with their back facing the door. When the mice come out from the light room and enter the dark room, they get shocked, such behavior is called an error reaction. The first duration before an error reaction occurs after a mouse is placed in the box is called the latency period. Mice bearing better memories have longer latency period and commit less error reactions in a certain period of time.
Agents that are able to increase the latency period and reduce error reactions of mice in the Step Through Test Box are deemed effective in improving the memory of animals. Reference: Xu S Y (1991), Chen Q (1996), Zhang J T. (1998), Yang J, Want J. et al (2000), and Zhu X D and Tang X C.
Animals: KM mice, female, 18-20 g, purchased from Shanghai Experimental Animal Center of the Chinese Academy of Sciences.
Thirty normal female mice weighed between 18-20 g were randomized into 3 groups of 10: negative control, positive control (Huperzine A) and the test group. The mice were administered orally with the above-indicated doses and drugs, once a day for 14 days. An hour after the last administration (day 14), all the mice were orally given 45% ethanol (0.1 ml/10 g). 30 minutes later, the mice were placed in the light room of the test box with their back facing the door. When the mice entered the dark room and got shocked, the latency period was recorded (the 1st latency period). The test was conducted again 24 hours later, wherein the number of mice entering the dark room (error reaction) and the latency period (the 2nd latency period) were recorded.

[10] = tested on: ovariectomized rats; experiment: Serum estrogen and progesterone levels (RIA), uterus weight and visceral index in ovariectomized rats; conditions: ovariectomized SD rats, 28 days once daily, n = 6
Protocol: Female hormone stimulates estrogen in overiectomized female mice/rats.
SD rats, female, weighted between 220-250 g before administration, purchased from Shanghai Sino-British Sippr/BK LAB Animal Ltd., randomly split into 5 groups.
• Negative control group: 0.9% saline • Positive control group: • 1. Estradiol Benzoate, purchased from Shanghai No. 9 Pharmaceutical Ltd. Dose: 0.01 mg/kg weight/day • 2. ZuoGuiWan, purchased from Shanghai Leiyunshang Fengbang Pharmaceutical Co., Ltd. • 3. GengNianAn, purchased from Zhongxin Pharmacy Tianjin Leren Tang Pharmaceutical Factory. […] Dose: 1.0 ml/100 g weight/day • Positive control group: • 1. Estradiol Benzoate, Dose: […] dissolved in peanut oil (0.01 mg/ml). • 2. ZuoGuiWan, Dose: 7 g/kg weight/day dissolved in 0.5% CMC—Na, • 3. GengNianAn, Dose: 6 g/kg weight/day dissolved in 0.5% CMC—Na, • 5.
Thirty ovariectomized female SD rats weighed between 220.0-250.0 g were randomized into 5 groups: the negative control group, the positive control group, comprising 1. Estradiol Benzoate group, 2. ZuoGuiWan group, 3. GengNianAn group, and the test group. The rats in the negative control, ZuoGuiWan, GengNianAn and the test groups received respective drug and dose as indicated intragastrically. The rats in Estradiol Benzoate were injected with estradiol at the above-indicated dose. All rats received administration once everyday for consecutive 28 days. During the 28 days, a daily pap smear was performed before drug administration. Twenty-four hours after the last administration, all of the rats were weighed, anesthetized, blood withdrawn and killed. The uterus was then removed and half of the uterus was weight in wet. The other half of the uterus was dried for 8 hours in an oven for the measurement of dried weight. The serum estrogen and progesterone levels were determined using radioimmunoassay (RIA) method.

[11] = 5 minutes pre-adaptation (first test), scopolamine 2 mg/kg i.p.
[12] = 24 hours after scopolamine administration
[13] = The second test (24 h later), 45% ethanol
[14] = Composition I 7 g (crude herb)/kg/day i.g., ZuoGuiWan 7 g/kg/day, GengNianAn 6 g/kg/day, Estradiol Benzoate 0.01 mg/kg/day injected

## C[C@]12CC[C@@H]3c4ccc(O)cc4CC[C@H]3[C@@H]1CC[C@@H]2O [17β Estradiol]
[1]
  Kidney cholesterol: 3.5 ± 0.4 mg/g
[2]
  Percentage of FRAP value remained after 4 weeks of treatment: 88.32 ± 21.06 (p = 0.17) %

## CN1C(=O)CN=C(c2ccccc2)c2cc(Cl)ccc21 [Diazepam]
[3]
  Locomotion times during the 3 minutes, 1 hour after drug: 61.0 ± 11.6
  Locomotion times during the 3 minutes, 3 hour after drug: 46.2 ± 11.3
[4]
  Sleeping Time: 2927.8 ± 1061.2 s
[5]
  Shuttle Time: 76.1 ± 8.90
  Time spent in dark box: 166.6 ± 45.05
[6]
  Shuttle Time: 20.5 ± 10.7 (p = 0.874)
  Time spent in dark box: 47.4 ± 31.9
[7]
  Time spent in open arm × 100% / Time spent in both arms: 6 ± 7%
  Times of entering open arm × 100% / Times of entering both arms: 12 ± 11%

## C/C=C1\[C@H]2C=C(C)C[C@]1(N)c1ccc(=O)[nH]c1C2 [Huperzine A]
[8]; [11]
  Number of shocks per mouse: 5.7 ± 2.7
  Total number of shocks: 51
[8]; [12]
  First step down latency period: 200.6 ± 137.2 s
  Number of error reactions in 3 minutes: 8
  Number of shocked mice: 5
[9]; The first test, 45% ethanol 0.1 ml/10 g orally
  The 1st latency period: 19.3 ± 16.16
[9]; [13]
  No. of error reactions: 1.4 ± 2.0
  The 2nd latency period: 196.2 ± 121.9

## C[C@]12CC[C@@H]3c4ccc(OC(=O)c5ccccc5)cc4CC[C@H]3[C@@H]1CC[C@@H]2O [Estradiol Benzoate]
[10]; [14]
  Serum Estrogen: 33.00 ± 21.76 ng/mL
  Serum Progesterone: 25.85 ± 6.15 ng/mL
[10]; doses as for serum levels
  Visceral Index: 0.246 ± 0.030 g/100 g BW
  Wet weight of uterus: 0.597 ± 0.064 g
